Values of other authors, collected in US20220378840A1, “COMPOSITIONS, KITS AND METHODS FOR STORAGE OF BLOOD PRODUCTS AND METHODS OF USE THEREOF” (Rutgers, The State University of New Jersey, priority 2019, published 2022).

Tests used:
RBCs [1] = settings: 6% concentration L-carnitine
RBCs [2] = settings: prolonged incubation in 3% L-carnitine
cells = settings: 6% concentration HES
hemorrhagic shock = settings: 6% concentration HES

Compound | recovery of RBCs (RBCs [1]) [%] | toxicity on prolonged incubation (RBCs [2]) | cell survival during freezing and thawing (cells) | oxidative stress and inflammatory response in hemorrhagic shock (hemorrhagic shock)
C[N+](C)(C)C[C@H](O)CC(=O)[O-] [L-carnitine] | 80 | non-toxic | – | –
Hydroxyethyl starch [HES] | – | – | improves cell survival | reduces oxidative stress and inflammatory response
